Patent US20230059009A1, “INHIBITORS OF LIN28 AND METHODS OF USE THEREOF” (The Regents of the University of California, priority 2019, published 2023)

Columns and labels:
SW620 [1] = assay: Cell viability, MTT assay, SW620; type: cell-based; conditions: Homo sapiens, SW-620, SW620 (Colon)
Protocol: (§1) To measure cell viability, cell titer glow (CTG, Promega CellTiter-Glo 2.0 Assay) and MTT assays (SigmaAldrich, Cell Proliferation Kit I) were performed. Briefly, cells were serum starved overnight prior to seeding in 96-well plates. Following 24 h incubation, cells were treated with increasing concentrations of JGJ compounds for 96 hr. At assay read-out, CellTiter-Glo reagent was added and luminescence was measured after 10-minutes incubation at room temperature. For the MTT assay, MTT labeling reagent was added and incubated for 4 h. Subsequently, medium was removed and 50 μL DMSO was added to solubilize the crystals, and absorbance was measured at 570 nm. Cell viability was calculated as (Sample-Background)/(Control-Background). Current standard of care drugs, Enzalutamide, Palbociclib and Cetuximab were used as comparative controls.

SW480 [2] = assay: Cell viability, MTT assay, SW480; type: cell-based; conditions: Homo sapiens, SW480 (Colon)
Protocol: as §1

HCT-116 = assay: Cell viability, CTG, HCT-116; type: cell-based; conditions: Homo sapiens, HCT-116 (Colon)
Protocol: as §1

CYP 1A2 = target: T1, CYP 1A2 (Homo sapiens, UniProt P05177); assay: CYP inhibition 1A2; type: in vitro ADME; set-up: unit not given here; conditions: Conc. 10 uM
T1 sequence (P05177 1-516): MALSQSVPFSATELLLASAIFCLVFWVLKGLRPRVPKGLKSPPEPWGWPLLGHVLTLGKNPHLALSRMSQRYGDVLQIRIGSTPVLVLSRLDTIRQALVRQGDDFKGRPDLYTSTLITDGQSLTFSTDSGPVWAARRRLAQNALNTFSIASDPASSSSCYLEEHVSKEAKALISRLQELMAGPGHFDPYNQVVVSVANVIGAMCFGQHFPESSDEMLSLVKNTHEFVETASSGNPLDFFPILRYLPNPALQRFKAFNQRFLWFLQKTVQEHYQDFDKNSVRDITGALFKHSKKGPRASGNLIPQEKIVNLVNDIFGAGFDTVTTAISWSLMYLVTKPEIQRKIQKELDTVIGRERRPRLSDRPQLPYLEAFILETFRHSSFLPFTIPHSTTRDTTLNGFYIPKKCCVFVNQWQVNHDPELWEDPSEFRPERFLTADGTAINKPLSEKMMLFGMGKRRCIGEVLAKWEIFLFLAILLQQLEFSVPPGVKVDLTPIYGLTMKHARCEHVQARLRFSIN

MCF7 [3] = assay: Cell viability, CTG, MCF7; type: cell-based; conditions: Homo sapiens, MCF7 (Breast)
Protocol: as §1

CYP 2C9 = CYP 2C9 (Homo sapiens, UniProt P11712); assay: CYP inhibition 2C9; type: in vitro ADME; set-up: unit not given here; conditions: Conc. 10 uM
Sequence of CYP 2C9 (P11712 whole entry): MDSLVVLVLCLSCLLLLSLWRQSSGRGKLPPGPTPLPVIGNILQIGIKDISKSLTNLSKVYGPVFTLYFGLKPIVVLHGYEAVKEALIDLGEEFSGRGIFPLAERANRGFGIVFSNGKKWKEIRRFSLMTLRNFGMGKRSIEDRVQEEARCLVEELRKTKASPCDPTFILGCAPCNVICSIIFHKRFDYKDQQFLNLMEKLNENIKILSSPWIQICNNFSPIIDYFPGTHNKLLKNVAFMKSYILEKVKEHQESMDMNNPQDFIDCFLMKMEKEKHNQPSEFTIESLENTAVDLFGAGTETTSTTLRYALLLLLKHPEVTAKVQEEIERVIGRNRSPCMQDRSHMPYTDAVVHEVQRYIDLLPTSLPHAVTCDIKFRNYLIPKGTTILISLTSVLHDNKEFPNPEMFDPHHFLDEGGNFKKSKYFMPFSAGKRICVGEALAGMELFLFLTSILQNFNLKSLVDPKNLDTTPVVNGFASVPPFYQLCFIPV

22RV1 [4] = assay: Cell viability, CellTiter-Glo (CTG), 22RV1; type: cell-based; conditions: Homo sapiens, 22RV1 (Prostate), 96 hr
Protocol: as §1, with “(Sample-Background)/(Control-Background).” for “(Sample-Background)/(Control-Background). Current standard of care drugs, Enzalutamide, Palbociclib and Cetuximab were used as comparative controls.”

MDA-MB231 = assay: Cell viability, CTG, MDA-MB231; type: cell-based; conditions: Homo sapiens, MDA-MB-231, MDA-MB231 (Breast)
Protocol: as §1

SW480 [5] = assay: Cell viability, CTG, SW480; type: cell-based; conditions: Homo sapiens, SW480 (Colon)
Protocol: as §1, with “(Sample-Background)/(Control-Background).” for “(Sample-Background)/(Control-Background). Current standard of care drugs, Enzalutamide, Palbociclib and Cetuximab were used as comparative controls.”

Caco2 permeability = type: in vitro ADME; conditions: human, Caco-2, Conc. 5 uM
[6] = Microsomal stability, Human; type: in vitro ADME; conditions: Conc. 5 uM
CYP 2D6 = CYP 2D6 (Homo sapiens, UniProt P10635); assay: CYP inhibition 2D6; type: in vitro ADME; set-up: unit not given here; conditions: Conc. 10 uM
Sequence of CYP 2D6 (P10635 whole entry): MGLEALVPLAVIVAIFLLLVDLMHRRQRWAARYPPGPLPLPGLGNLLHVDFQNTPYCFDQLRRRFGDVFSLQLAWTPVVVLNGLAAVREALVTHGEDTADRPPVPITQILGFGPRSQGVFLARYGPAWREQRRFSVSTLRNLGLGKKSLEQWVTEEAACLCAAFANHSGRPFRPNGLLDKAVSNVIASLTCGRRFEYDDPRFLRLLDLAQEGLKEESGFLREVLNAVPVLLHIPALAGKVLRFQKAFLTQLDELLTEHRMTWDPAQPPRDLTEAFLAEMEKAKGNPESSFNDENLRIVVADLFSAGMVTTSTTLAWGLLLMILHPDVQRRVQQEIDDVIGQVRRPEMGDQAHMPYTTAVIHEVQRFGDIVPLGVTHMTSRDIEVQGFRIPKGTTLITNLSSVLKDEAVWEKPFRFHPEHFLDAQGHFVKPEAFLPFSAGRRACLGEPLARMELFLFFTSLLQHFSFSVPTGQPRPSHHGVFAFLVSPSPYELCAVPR

CYP 2C8 = target: T2, CYP 2C8 (Homo sapiens, UniProt P10632); assay: CYP inhibition 2C8; type: in vitro ADME; set-up: unit not given here; conditions: Conc. 10 uM
T2 sequence (P10632 1-490): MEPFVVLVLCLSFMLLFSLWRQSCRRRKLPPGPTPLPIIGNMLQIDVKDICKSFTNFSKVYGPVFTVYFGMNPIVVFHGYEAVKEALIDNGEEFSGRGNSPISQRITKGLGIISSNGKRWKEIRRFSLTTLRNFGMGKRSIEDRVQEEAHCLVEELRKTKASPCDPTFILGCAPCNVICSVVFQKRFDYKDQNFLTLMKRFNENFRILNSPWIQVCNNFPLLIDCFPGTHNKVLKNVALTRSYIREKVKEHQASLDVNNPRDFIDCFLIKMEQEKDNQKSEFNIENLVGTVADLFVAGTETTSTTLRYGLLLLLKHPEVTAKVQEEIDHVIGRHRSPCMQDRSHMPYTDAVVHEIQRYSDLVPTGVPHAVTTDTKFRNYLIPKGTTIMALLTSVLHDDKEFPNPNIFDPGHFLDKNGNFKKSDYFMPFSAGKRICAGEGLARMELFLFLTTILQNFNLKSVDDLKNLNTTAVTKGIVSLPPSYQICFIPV

CAPAN-1 = assay: Cell viability, CTG, CAPAN-1; type: cell-based; conditions: Homo sapiens, CAPAN-1 (Pancreatic)
Protocol: as §1

MYC-driven cancers = assay: Cell viability and cell counting assays in cancer cells; type: cell-based; conditions: TNBC, CRPC, lung and colorectal adenocarcinoma cells
Protocol: To test whether LN1632 and novel analogs thereof affect cancer cell growth, cell viability and cell counting assays in TNBC (FIG. 14B-D), castration resistant prostate cancer cells (CRPC, FIG. 15A-C) and colorectal cancer cells (CRC, FIG. 15A-C) were performed.
as §1

CYP 2C19 = CYP 2C19 (Homo sapiens, UniProt P33261); assay: CYP inhibition 2C19; type: in vitro ADME; set-up: unit not given here; conditions: Conc. 10 uM
Sequence of CYP 2C19 (P33261 whole entry): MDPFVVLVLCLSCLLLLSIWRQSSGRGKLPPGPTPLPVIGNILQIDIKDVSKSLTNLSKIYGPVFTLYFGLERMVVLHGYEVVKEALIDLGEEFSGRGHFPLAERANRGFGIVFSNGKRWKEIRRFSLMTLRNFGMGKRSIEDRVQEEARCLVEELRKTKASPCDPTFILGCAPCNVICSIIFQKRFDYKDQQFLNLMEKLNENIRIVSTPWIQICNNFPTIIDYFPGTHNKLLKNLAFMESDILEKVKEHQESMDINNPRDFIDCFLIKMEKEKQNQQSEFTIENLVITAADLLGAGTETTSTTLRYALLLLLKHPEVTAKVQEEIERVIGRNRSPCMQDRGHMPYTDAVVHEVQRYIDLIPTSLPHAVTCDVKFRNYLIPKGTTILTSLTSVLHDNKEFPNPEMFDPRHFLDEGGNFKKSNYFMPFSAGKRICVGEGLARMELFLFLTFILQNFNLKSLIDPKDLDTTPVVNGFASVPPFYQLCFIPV

[7] = Microsomal stability, CD-1 Mouse; type: in vitro ADME; conditions: Conc. 5 uM
SW620 [8] = assay: Cell viability, CTG, SW620; type: cell-based; conditions: Homo sapiens, SW-620, SW620 (Colon)
Protocol: as §1

22RV1 [9] = assay: Cell viability, MTT assay, 22RV1; type: cell-based; conditions: Homo sapiens, 22RV1 (Prostate), 96 hr
Protocol: as §1, with “(Sample-Background)/(Control-Background).” for “(Sample-Background)/(Control-Background). Current standard of care drugs, Enzalutamide, Palbociclib and Cetuximab were used as comparative controls.”

CYP 2B6 = target: T3, CYP 2B6 (Homo sapiens, UniProt P20813); assay: CYP inhibition 2B6; type: in vitro ADME; set-up: unit not given here; conditions: Conc. 10 uM
T3 sequence (P20813 1-491): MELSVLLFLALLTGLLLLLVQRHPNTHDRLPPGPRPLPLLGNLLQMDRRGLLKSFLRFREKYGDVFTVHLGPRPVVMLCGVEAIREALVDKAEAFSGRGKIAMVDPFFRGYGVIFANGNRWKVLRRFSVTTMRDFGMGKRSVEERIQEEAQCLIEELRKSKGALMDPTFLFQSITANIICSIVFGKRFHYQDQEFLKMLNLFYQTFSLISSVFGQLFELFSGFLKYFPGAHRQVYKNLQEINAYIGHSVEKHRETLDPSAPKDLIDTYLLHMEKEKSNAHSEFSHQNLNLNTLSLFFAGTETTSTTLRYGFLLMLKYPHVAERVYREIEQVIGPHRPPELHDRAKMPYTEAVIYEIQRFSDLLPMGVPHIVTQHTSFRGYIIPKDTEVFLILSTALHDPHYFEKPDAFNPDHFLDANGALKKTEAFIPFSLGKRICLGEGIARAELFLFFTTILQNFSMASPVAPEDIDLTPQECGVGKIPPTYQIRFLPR

ASPC-1 = assay: Cell viability, CTG, ASPC-1; type: cell-based; conditions: Homo sapiens, ASPC1, ASPC-1 (Pancreatic)
Protocol: as §1

LSCs = assay: Colony forming capacity (CFC) of iMLL-AF9 LT-HSC derived LSCs; type: cell-based, mouse; conditions: 200 nM Ara-C or 30 μM 1632, 48 h
Source text: In addition, Lin28 was independently found to be a key driver in MLL-associated leukemias (56). In order to further characterize the role of Lin28/let-7 in regulating AML, LSC proliferation and therapy resistance in vivo, we used a doxycycline (DOX) inducible, transgenic mouse model for MLL-AF9-driven AML (iMLL-AF9 (57)). In this model, long-term HSC (LT-HSC, Lin^−CD34^−[…] c-Kit^+ CD150^+ CD48^−) derived AML blasts closely mirror an LSC-like phenotype resulting in a particularly aggressive, Cytarabine (Ara-C) resistant AML (57). […] Moreover, relapsed AML cells arising from rLSCs after treatment with Ara-C (100 mg/kg) at d+60 were even further enriched in Lin28b expression (FIG. 2B). Additionally, levels of both, let-7a and let-7b miRNAs, negatively correlated with increased Lin28b in rLSCs (FIG. 2C) (10, 39). Our findings are consistent with papers reporting that increased Lin28 correlates with disease recurrence post chemotherapy in colon and liver cancer stem cells (22, 58).
As Lin28 is overexpressed human AML, LSCs and rLSCs, we sought to determine if genetic Lin28b or pharmacologic Lin28/let-7 inhibition via LN1632 can abrogate proliferation of LSCs and thus overcome their therapy resistance. […]

MCF7 [10] = assay: Cell viability, MTT assay, MCF7; type: cell-based; conditions: Homo sapiens, MCF7 (Breast)
Protocol: as §1

BT-549 = assay: Cell viability, MTT assay, BT-549; type: cell-based; conditions: Homo sapiens, BT-549 (Breast)
Protocol: as §1

[11] = microsomes, read-out: Microsomal stability T½

Which results are given for CC(=O)Nc1cc(F)cc(-c2ccc3[nH]cc(-c4ccccc4)c3n2)c1 [JGJ037, N-(3-Fluoro-5-(3-phenyl-1H-pyrrolo[3,2-b]pyridin-5-yl)phenyl)acetamide]?
IC50 (SW620 [1]): 8.5 µM; IC50 (SW480 [2]): 26 µM; IC50 (HCT-116): 76 µM; CYP inhibition 1A2 (CYP 1A2): 88.9; IC50 (MCF7 [3]): 15 µM; CYP inhibition 2C9 (CYP 2C9): 86.6; IC50 (22RV1 [4]): 3 µM; IC50 (MDA-MB231): 11 µM; IC50 (SW480 [5]): 39 µM; Papp A→B at 5 uM (Caco2 permeability): 0.44 ×10⁻⁶ cm/s; Papp B→A at 5 uM (Caco2 permeability): 1.69 ×10⁻⁶ cm/s; efflux ratio at 5 uM (Caco2 permeability): 3.9; recovery at 5 uM (Caco2 permeability; read-out: Caco2 Mean A-B % Recovery): 47%; Microsomal stability % Remaining at T30 [6]: T30 = 91.2%; microsomal CLint at 5 uM ([6]; microsomes): 11.6 µL/min/mg; half-life at 5 uM [6, 11]: > 2 h; CYP inhibition 2D6 (CYP 2D6): 93.9; CYP inhibition 2C8 (CYP 2C8): 90.5; IC50 (CAPAN-1): 22 µM; Proliferation and apoptosis of cancer cells (MYC-driven cancers): reduced proliferation and induced apoptosis preferentially in MYC-driven cancers; CYP inhibition 2C19 (CYP 2C19): 98.3; Microsomal stability % Remaining at T30 [7]: T30 = 78.6%; microsomal CLint at 5 uM ([7]; microsomes): 14.9 µL/min/mg; half-life at 5 uM [7, 11]: 1.55 h; IC50 (SW620 [8]): 15 µM; IC50 (22RV1 [9]): 2 µM; CYP inhibition 2B6 (CYP 2B6): 69.6; IC50 (ASPC-1): 31 µM

Which “Colony forming capacity cell numbers (CFCs) of LSCs” value (LSCs) does the source give for Nc1ccn([C@@H]2O[C@H](CO)[C@@H](O)[C@@H]2O)c(=O)n1 [Ara-C, Cytarabine] here?
Its value is “did not alter colony forming capacity cell numbers (CFCs)”.

What does the source list for CC(=O)c1c(C)c2cnc(Nc3ccc(N4CCNCC4)cn3)nc2n(C2CCCC2)c1=O [Palbociclib, reference compound]?
IC50 (MCF7 [3]): 32 µM; IC50 (MDA-MB231): 13 µM; IC50 (MCF7 [10]): 5 µM; IC50 (BT-549): 72 µM
